The values below are quoted from earlier work in US20130190270A1, “Method for Improving Vein Performance in Bypass Surgery” (priority 2012, published 2013).

Data set [1] deals with atherosclerosis. The settings on record: mice.
The test system of data set [2] is atherosclerosis. The settings on record: guinea pigs.
Data set [3] relates to atherosclerosis. The settings on record: humans.
The next data set has as its system circulating sPLA2-IIA. The settings on record: patients who underwent CABG.

Like-named read-outs stand apart in the source and are kept apart here.

Regarding `CCc1c(C(=O)C(N)=O)c2c(OCC(=O)O)cccc2n1Cc1ccccc1`, the effect on atherosclerosis entry in the data set on atherosclerosis [1], in the data set with atherosclerosis [2] and with atherosclerosis [3] was “can reduce atherosclerosis” in each case.

As to heparin, in the data set on circulating sPLA2-IIA, the “effect on circulating sPLA2-IIA levels” value is recorded as “induce increased circulating sPLA2-IIA levels”.
